# Assay results published in US20250059182A1, “SOS1 INHIBITORS” (Mirati Therapeutics, Inc., priority 2021, published 2025).
# Experiments:
# [1] = tested on: pERK in MKN1 cells; test: pERK inhibition, In-Cell Western (LI-COR Odyssey), MKN1 cells; type: cell-based; details: Homo sapiens, MKN-1, Table B; MKN1 or H358 cells (table does not say which); 0.5-1 hour incubation; read-out: IC50 (nM), pERK inhibition
# How it was run: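 MKN1 cells were exposed for about 0.5–1 h at 37 °C to nine 3-fold dilutions starting at 10 µM. Cells were then fixed in formaldehyde, permeabilised with methanol, and immunostained for pERK and GAPDH with near-infrared secondary antibodies. GAPDH-normalised pERK signal relative to vehicle gave % inhibition, from which IC50 was fitted.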
# [2] = biological target: T1, recombinant human SOS1 polypeptide (amino acids 560-1049) (Homo sapiens, UniProt Q07889); test: HTRF displacement assay: inhibition of labeled tracer binding to SOS1; details: Table A, Morrison equation for competitive binding
# T1 construct: corresponding to amino acids 560-1049, expressed in E. Coli; made in house; host or cells: E. coli
# T1 sequence (Q07889 560-1049): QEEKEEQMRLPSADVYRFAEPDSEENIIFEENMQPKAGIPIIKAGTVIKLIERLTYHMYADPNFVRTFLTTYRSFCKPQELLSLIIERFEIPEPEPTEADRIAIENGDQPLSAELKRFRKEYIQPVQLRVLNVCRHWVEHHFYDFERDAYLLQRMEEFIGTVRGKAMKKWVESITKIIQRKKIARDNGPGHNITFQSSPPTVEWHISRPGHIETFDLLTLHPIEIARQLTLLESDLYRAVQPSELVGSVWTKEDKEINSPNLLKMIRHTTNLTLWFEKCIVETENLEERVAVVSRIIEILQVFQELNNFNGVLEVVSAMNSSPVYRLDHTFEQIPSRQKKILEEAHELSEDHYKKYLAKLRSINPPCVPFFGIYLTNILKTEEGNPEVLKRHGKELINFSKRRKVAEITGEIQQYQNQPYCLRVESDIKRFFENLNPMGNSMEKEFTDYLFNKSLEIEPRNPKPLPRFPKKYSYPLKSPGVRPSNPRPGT
Compound,IC50 [1] [nM],Ki [2] [nM]
"CCN1CC2(C1)CN(c1cc3c(N[C@H](C)c4cccc(C(F)(F)F)c4F)nnc(C)c3cn1)C2 [Example 1-27, (R)-7-(6-ethyl-2,6-diazaspiro[3.3]heptan-2-yl)-N-(1-(2-fluoro-3-(trifluoromethyl)phenyl)ethyl)-4-methylpyrido[3,4-d]pyridazin-1-amine]",18.6,0.27
"Cc1c([C@@H](C)Nc2nnc(C)c3cnc(N4CC5(CN(C)C5)C4)cc23)cccc1C(F)(F)F [Example 1-32, (R)-4-methyl-N-(1-(2-methyl-3-(trifluoromethyl)phenyl)ethyl)-7-(6-methyl-2,6-diazaspiro[3.3]heptan-2-yl)pyrido[3,4-d]pyridazin-1-amine]",32.3,0.163
"Cc1c(C#N)cccc1[C@@H](C)Nc1nnc(C)c2cnc(N3CCN(C4CC4)CC3)cc12 [Example 1-33, (R)-3-(1-((7-(4-cyclopropylpiperazin-1-yl)-4-methylpyrido[3,4-d]pyridazin-1-yl)amino)ethyl)-2-methylbenzonitrile]",87.8,1.87
"Cc1c(C#N)cccc1[C@@H](C)Nc1nnc(C)c2cnc(N3C[C@@H]4C[C@H]3CN4C)cc12 [Example 1-34, 2-methyl-3-((R)-1-((4-methyl-7-((1S,4S)-5-methyl-2,5-diazabicyclo[2.2.1]heptan-2-yl)pyrido[3,4-d]pyridazin-1-yl)amino)ethyl)benzonitrile]",49.2,2.25
"Cc1c(C#N)cccc1[C@@H](C)Nc1nnc(C)c2cnc(N3C[C@H]4C[C@@H]3CN4C)cc12 [Example 1-35, 2-methyl-3-((R)-1-((4-methyl-7-((1R,4R)-5-methyl-2,5-diazabicyclo[2.2.1]heptan-2-yl)pyrido[3,4-d]pyridazin-1-yl)amino)ethyl)benzonitrile]",18.4,1.19
"CCN1C[C@@H]2C[C@H]1CN2c1cc2c(N[C@H](C)c3cccc(C#N)c3C)nnc(C)c2cn1 [Example 1-36, 3-((R)-1-((7-((1S,4S)-5-ethyl-2,5-diazabicyclo[2.2.1]heptan-2-yl)-4-methylpyrido[3,4-d]pyridazin-1-yl)amino)ethyl)-2-methylbenzonitrile]",75.5,3.43
"CCN1C[C@H]2C[C@@H]1CN2c1cc2c(N[C@H](C)c3cccc(C#N)c3C)nnc(C)c2cn1 [Example 1-37, 3-((R)-1-((7-((1R,4R)-5-ethyl-2,5-diazabicyclo[2.2.1]heptan-2-yl)-4-methylpyrido[3,4-d]pyridazin-1-yl)amino)ethyl)-2-methylbenzonitrile]",19.7,1.61
"CCN1CC[C@H](Nc2cc3c(N[C@H](C)c4cccc(C#N)c4C)nnc(C)c3cn2)C1 [Example 1-38, 3-((R)-1-((7-(((S)-1-ethylpyrrolidin-3-yl)amino)-4-methylpyrido[3,4-d]pyridazin-1-yl)amino)ethyl)-2-methylbenzonitrile]",221,5.6
"CCN1CC[C@@H](Nc2cc3c(N[C@H](C)c4cccc(C#N)c4C)nnc(C)c3cn2)C1 [Example 1-39, 3-((R)-1-((7-(((R)-1-ethylpyrrolidin-3-yl)amino)-4-methylpyrido[3,4-d]pyridazin-1-yl)amino)ethyl)-2-methylbenzonitrile]",126,4
"Cc1c(C#N)cccc1[C@@H](C)Nc1nnc(C)c2cnc(N(C)C3CCN(C)CC3)cc12 [Example 1-40, (R)-2-methyl-3-(1-((4-methyl-7-(methyl(1-methylpiperidin-4-yl)amino)pyrido[3,4-d]pyridazin-1-yl)amino)ethyl)benzonitrile]",45.4,0.805
"Cc1c(C#N)cccc1[C@@H](C)Nc1nnc(C)c2cnc(NC3CCN(C)CC3)cc12 [Example 1-41, (R)-2-methyl-3-(1-((4-methyl-7-((1-methylpiperidin-4-yl)amino)pyrido[3,4-d]pyridazin-1-yl)amino)ethyl)benzonitrile]",272,4.49
"CCN1CCC(Nc2cc3c(N[C@H](C)c4cccc(C#N)c4C)nnc(C)c3cn2)CC1 [Example 1-42, (R)-3-(1-((7-((1-ethylpiperidin-4-yl)amino)-4-methylpyrido[3,4-d]pyridazin-1-yl)amino)ethyl)-2-methylbenzonitrile]",257,7.37
"CCN1CCC(N(C)c2cc3c(N[C@H](C)c4cccc(C#N)c4C)nnc(C)c3cn2)CC1 [Example 1-43, (R)-3-(1-((7-((1-ethylpiperidin-4-yl)(methyl)amino)-4-methylpyrido[3,4-d]pyridazin-1-yl)amino)ethyl)-2-methylbenzonitrile]",42.2,1.28
"CCN1CCN(c2cc3c(N[C@H](C)c4cccc(C#N)c4C)nnc(C)c3cn2)CC1=O [Example 1-44, (R)-3-(1-((7-(4-ethyl-3-oxopiperazin-1-yl)-4-methylpyrido[3,4-d]pyridazin-1-yl)amino)ethyl)-2-methylbenzonitrile]",44.6,1.9
"Cc1c(C#N)cccc1[C@@H](C)Nc1nnc(C)c2cnc(N3CC[C@H](O)C3)cc12 [Example 1-46, 3-((R)-1-((7-((S)-3-hydroxypyrrolidin-1-yl)-4-methylpyrido[3,4-d]pyridazin-1-yl)amino)ethyl)-2-methylbenzonitrile]",71.3,1.95
"Cc1c(C#N)cccc1[C@@H](C)Nc1nnc(C)c2cnc(N3CC[C@@H](O)C3)cc12 [Example 1-47, 3-((R)-1-((7-((R)-3-hydroxypyrrolidin-1-yl)-4-methylpyrido[3,4-d]pyridazin-1-yl)amino)ethyl)-2-methylbenzonitrile]",50.3,1.33
"CO[C@H]1CCN(c2cc3c(N[C@H](C)c4cccc(C#N)c4C)nnc(C)c3cn2)C1 [Example 1-48, 3-((R)-1-((7-((S)-3-methoxypyrrolidin-1-yl)-4-methylpyrido[3,4-d]pyridazin-1-yl)amino)ethyl)-2-methylbenzonitrile]",39.2,2.02
"CO[C@@H]1CCN(c2cc3c(N[C@H](C)c4cccc(C#N)c4C)nnc(C)c3cn2)C1 [Example 1-49, 3-((R)-1-((7-((R)-3-methoxypyrrolidin-1-yl)-4-methylpyrido[3,4-d]pyridazin-1-yl)amino)ethyl)-2-methylbenzonitrile]",36,2.01
"Cc1c(C#N)cccc1[C@@H](C)Nc1nnc(C)c2cnc(N3CC[C@H](NS(C)(=O)=O)C3)cc12 [Example 1-50, N-((S)-1-(1-(((R)-1-(3-cyano-2-methylphenyl)ethyl)amino)-4-methylpyrido[3,4-d]pyridazin-7-yl)pyrrolidin-3-yl)methanesulfonamide]",602,2.07
"Cc1c(C#N)cccc1[C@@H](C)Nc1nnc(C)c2cnc(N(C)[C@H]3CCNC3)cc12 [Example 1-51, 2-methyl-3-((R)-1-((4-methyl-7-(methyl((S)-pyrrolidin-3-yl)amino)pyrido[3,4-d]pyridazin-1-yl)amino)ethyl)benzonitrile]",275,0.867
"Cc1c(C#N)cccc1[C@@H](C)Nc1nnc(C)c2cnc(N(C)[C@@H]3CCNC3)cc12 [Example 1-52, 2-methyl-3-((R)-1-((4-methyl-7-(methyl((R)-pyrrolidin-3-yl)amino)pyrido[3,4-d]pyridazin-1-yl)amino)ethyl)benzonitrile]",457,1.11
"Cc1c(C#N)cccc1[C@@H](C)Nc1nnc(C)c2cnc(N(C)[C@H]3CCCNC3)cc12 [Example 1-53, 2-methyl-3-((R)-1-((4-methyl-7-(methyl((S)-piperidin-3-yl)amino)pyrido[3,4-d]pyridazin-1-yl)amino)ethyl)benzonitrile]",210,0.853
"Cc1c(C#N)cccc1[C@@H](C)Nc1nnc(C)c2cnc(N(C)[C@@H]3CCCNC3)cc12 [Example 1-54, 2-methyl-3-((R)-1-((4-methyl-7-(methyl((R)-piperidin-3-yl)amino)pyrido[3,4-d]pyridazin-1-yl)amino)ethyl)benzonitrile]",142,1.2
"Cc1c(C#N)cccc1[C@@H](C)Nc1nnc(C)c2cnc(N(C)C[C@@H]3CCCN3)cc12 [Example 1-55, 2-methyl-3-((R)-1-((4-methyl-7-(methyl(((S)-pyrrolidin-2-yl)methyl)amino)pyrido[3,4-d]pyridazin-1-yl)amino)ethyl)benzonitrile]",290,2.18
"Cc1c(C#N)cccc1[C@@H](C)Nc1nnc(C)c2cnc(N(C)C[C@H]3CCCN3)cc12 [Example 1-56, 2-methyl-3-((R)-1-((4-methyl-7-(methyl(((R)-pyrrolidin-2-yl)methyl)amino)pyrido[3,4-d]pyridazin-1-yl)amino)ethyl)benzonitrile]",246,2.15
"Cc1c(C#N)cccc1[C@@H](C)Nc1nnc(C)c2cnc(N(C)C[C@@H]3CCCN3C)cc12 [Example 1-57, 2-methyl-3-((R)-1-((4-methyl-7-(methyl(((S)-1-methylpyrrolidin-2-yl)methyl)amino)pyrido[3,4-d]pyridazin-1-yl)amino)ethyl)benzonitrile]",39.2,1.59
